Experimental data taken from PMC7927014, “Novel Small Molecule Hsp90/Cdc37 Interface Inhibitors Indirectly Target K-Ras-Signaling” (Cancers, 2021).
Structures can show the parent of a compound that is named as a salt.

Assays:
Hsp90/Cdc37 [1] = biological target: T1, Hsp90/Cdc37 (Homo sapiens, UniProt P07900); test: Hsp90/Cdc37 split Renilla luciferase assay, full length Hsp90 (cell lysate; IC50 and 20 μM validation); format: biochemical; settings: for normalized RLU / Average RLU: MolPort Screening-3, tested concentration of drugs 20 μM; for normalized RLU: RLU normalized to DMSO (=1.00); for Average RLU: average of 3 wells (DMSO 248028); for IC50: full length Hsp90, split Renilla luciferase assay, cell lysate
T1 construct: The Hsp90/Cdc37 split Renilla luciferase assay using the full length Hsp90 for the compound screening was described previously; expressed in transfected cells; host or cells: HEK293 EBNA cells, cleared lysates
Experimental: (§1) In the second in silico screening of the FIMM database, we employed the four identified chemical scaffolds (Figure S2B) for the visual inspection of the FIMM compound library. […] All of the purchased compounds were validated in vitro at 20 μM using the split Renilla luciferase assay.
(§2) The Hsp90/Cdc37 split Renilla luciferase assay using the full length Hsp90 for the compound screening was described previously. […] After 48 h, the cells were trypsinized and washed with PBS. The harvested cells were lysed in 1 mL of the 1x lysis buffer provided in the Renilla Luciferase Reporter Assay System Kit from Promega (cat. E2820), and were incubated on ice for 10 min. The cell lysates were then cleared by centrifugation at 13,000× g for 1 min. […] After this, the screening/test compounds or DMSO—as indicated—were added to each well. In total, 5 µL NRL-Hsp90- or NRL-N-Hsp90-lysate was added to each well, one row at a time. Subsequently, the plate was incubated for 5 min at room temperature (RT). […] Just before the reading, 20 µL assay buffer containing 2× Renilla luciferase substrate (coelenterazine) was added. For the FIMM screening, sample wells were read on a PHERAstar plate reader (BMG LABTECH) at a gain level of 4000, after 10 s shaking, using a hypomorph of NRL-Hsp90. For the subsequent validations of the compounds, sample wells with the above-described assay constructs were read using a synergy H1 Hybrid Multi-Mode reader (BioTek) in the luminescence detection mode, as described previously in detail.

N-Hsp90/Cdc37 = biological target: T2, N-Hsp90/Cdc37 (Homo sapiens, UniProt P07900); test: N-Hsp90/Cdc37 split Renilla luciferase assay (N-terminal Hsp90 fragment, residues 1-223); format: biochemical; settings: cell lysate
T2 construct: only the N-terminal ATP-ase domain of Hsp90 (N-Hsp90, residues 1-223); expressed in transfected cells; host or cells: HEK293 EBNA cells, cleared lysates
Experimental: as §2

Hsp90/Cdc37 [2] = test: FIMM screening in split Renilla luciferase assay with hypomorphic NRL-Hsp90 construct, 20 μM; format: biochemical; settings: for normalized RLU (FIMM Screening-2, scaffold based) / normalized RLU (FIMM Screening-1): DMSO = 1.00; for Average RLU (FIMM Screening-2, scaffold based) / Average RLU (FIMM Screening-1): mean of 3 wells; for Average RLU (FIMM Screening-2, scaffold based): DMSO 51006; for Average RLU (FIMM Screening-1): DMSO 50019
Experimental: as §1, §2

Hsp90α (N-terminal) = biological target: T3, Hsp90α (N-terminal) (Homo sapiens, UniProt P07900); test: Hsp90 N-terminal ATP-binding site competition assay (FITC-geldanamycin fluorescence polarization); settings: 20 μM compound
T3 construct: purchased BPS Bioscience 50298
Experimental: The reaction was initiated by adding 35 ng/μL purified recombinant Hsp90α, and was incubated at RT with slow shaking for 2 h. All of the reactions were performed in a black, low binding NUNC microtiter plate, included in the kit, and the total reaction volume was 50 μL. The enzyme control was measured without the test compound, and the enzyme background control was measured without the test compound or Hsp90α. […] All of the controls and the blank contained 10% DMSO, as did all of the samples of the test compounds. All of the samples were analyzed as duplicates. […] The blank value was subtracted from all of the other values, and the fluorescence polarization was determined as:(1) mP = ((III − I⊥)/(III+ I⊥)) × 1000 where III is the intensity of the parallel, and I┴ the intensity of the perpendicular polarized light.

SK-BR-3 cells = test: Tumorosphere assay (low adhesion, serum-free 3D spheroid culture); format: cell-based; settings: SK-BR-3, 20 μM, 72 h
Experimental: (§3) Per well, 2000 cells were seeded in flat bottom 96-well suspension culture plates (cat. no. 655185, Cellstar, Greiner Bio-One) in 100 µL DMEM or RPMI media containing 1× B27 (cat. no. 17504044, Gibco, Thermo Fisher Scientific), 25 ng/mL EGF (cat. no. E9644, Sigma-Aldrich), and 25 ng/mL FGF (cat. no. RP-8628, Thermo Fisher Scientific), 20% MethoCult H4100 (cat. no. 04100, […] Technologies). After 2 days, 50 µL media containing 0.3% DMSO or 3× the concentration of the indicated compounds were added to the wells in a 1:2 dilution-series, starting at 100 µM. After 72 h of treatment, 10% (v/v) alamarBlue reagent (cat. no. DAL1100, Thermo Fisher Scientific) was added to each well. Then, the fluorescence intensity (excitation 560 nm and emission 590 nm) was measured after 4 h using a H1 Hybrid Multi-Mode reader (BioTek).

HCC-44 cells = test: as above; format: cell-based; settings: HCC-44, 20 μM, 72 h
Experimental: as §3

MDA-MB-231 cells = test: as above; format: cell-based; settings: MDA-MB-231, 20 μM, 72 h
Experimental: as §3

MIA PaCa-2 cells = test: as above; format: cell-based; settings: MIA PaCa-2, 20 μM, 72 h
Experimental: as §3

| IC50 (Hsp90/Cdc37 [1]) | IC50 (N-Hsp90/Cdc37) | normalized RLU (FIMM Screening-1) (Hsp90/Cdc37 [2]) | Average RLU (FIMM Screening-1) (Hsp90/Cdc37 [2]) | Compound | other results |
| --- | --- | --- | --- | --- | --- |
| 72 ± 10 µM | 64 ± 9 µM | – | – | O=C(CSc1nc2ccccc2s1)c1ccc(O)c(O)c1 [SC9, 2-(1,3-benzothiazol-2-ylsulfanyl)-1-(3,4-dihydroxyphenyl)ethan-1-one] | normalized RLU (FIMM Screening-2, scaffold based) (Hsp90/Cdc37 [2]): 0.64; Average RLU (FIMM Screening-2, scaffold based) (Hsp90/Cdc37 [2]): 32657 RLU |
| 29.3 µM | – | 0.25 | 12261 RLU | O=c1c(O)cc([C@H]2Oc3cc(O)cc(O)c3C[C@H]2O)cc2c([C@H]3Oc4cc(O)cc(O)c4C[C@H]3O)cc(O)c(O)c12 [compound 1, Theaflavin] | – |
| 75 ± 26 µM | 81 ± 16 µM | 0.12 | 5883 RLU | O=C(O[C@@H]1Cc2c(O)cc(O)cc2O[C@@H]1c1cc(O)c(=O)c2c(O)c(O)cc([C@H]3Oc4cc(O)cc(O)c4C[C@H]3OC(=O)c3cc(O)c(O)c(O)c3)c2c1)c1cc(O)c(O)c(O)c1 [compound 2, Theaflavin 3,3-digallate] | – |
| – | – | 0.67 | 33633 RLU | NC[C@@H]1O[C@H](O[C@H]2[C@@H](O)[C@H](O[C@@H]3[C@@H](O)[C@H](N)C[C@H](N)[C@H]3O[C@H]3O[C@H](CO)[C@@H](O)[C@H](O)[C@H]3N)O[C@@H]2CO)[C@H](N)[C@@H](O)[C@@H]1O [compound 6, Paromomycin sulfate, reference compound] | – |
| 177 ± 31 µM | 322 ± 50 µM | 0.56 | 28120 RLU | Cc1ccc(Nc2ccc(C(=O)O)cc2N)cc1 [compound 7, 3-amino-4-(4-toluidino)benzoic acid] | – |
| 14.1 µM | – | 0.25 | 12688 RLU | O=C(O[C@@H]1Cc2c(O)cc(O)cc2O[C@@H]1c1cc(O)c(=O)c2c(O)c(O)cc([C@H]3Oc4cc(O)cc(O)c4C[C@H]3O)c2c1)c1cc(O)c(O)c(O)c1 [compound 8, Theaflavin monogallates] | – |
| 41 ± 8 µM | 94 ± 3 µM | – | – | O=C(CSS(=O)(=O)O)Nc1cccc(C(F)(F)F)c1 [×1625, [({[3-(trifluoromethyl)phenyl]carbamoyl}methyl)sulfanyl]sulfonate] | normalized RLU (Hsp90/Cdc37 [1]): 0.47; Average RLU (Hsp90/Cdc37 [1]): 117361 RLU; competition with FITC-geldanamycin (ATP-pocket binding, polarization signal) (Hsp90α (N-terminal)): None of these four compounds displaced; effect on spheroid formation (SK-BR-3 cells): did not decrease; effect on spheroid formation (HCC-44 cells): did not decrease; effect on spheroid formation (MDA-MB-231 cells): did not decrease; effect on spheroid formation (MIA PaCa-2 cells): did not decrease |
| 18 ± 2 µM | 14 ± 4 µM | 0.22 | 10978 RLU | NC(CSS(=O)(=O)O)=NCCC12CC3CC(CC(O)(C3)C1)C2 [×7648, 1-[2-[(1-amino-2-sulfosulfanylethylidene)amino]ethyl]-3-hydroxyadamantane] | – |

Second part, the compound before the results:

| Compound | IC50 (Hsp90/Cdc37 [1]) | IC50 (N-Hsp90/Cdc37) | normalized RLU (FIMM Screening-1) (Hsp90/Cdc37 [2]) | Average RLU (FIMM Screening-1) (Hsp90/Cdc37 [2]) | other results |
| --- | --- | --- | --- | --- | --- |
| O=C(O[C@@H]1Cc2c(O)cc(O)cc2O[C@@H]1c1ccc(O)c(O)c1)c1cc(O)c(O)c(O)c1 [M15, (2R,3R)-2-(3,4-dihydroxyphenyl)-5,7-dihydroxy-3,4-dihydro-2H-1-benzopyran-3-yl 3,4,5-trihydroxybenzoate (epicatechin gallate)] | 28 ± 4 µM | 4.8 ± 0.7 µM | – | – | normalized RLU (Hsp90/Cdc37 [1]): 0.33; Average RLU (Hsp90/Cdc37 [1]): 80961 RLU |
| N=C(N)SCc1cc(=O)[nH]c(=O)[nH]1 [SC5, {[(2,6-dioxo-1,2,3,6-tetrahydropyrimidin-4-yl)methyl]sulfanyl}methanimidamide] | – | – | – | – | normalized RLU (FIMM Screening-2, scaffold based) (Hsp90/Cdc37 [2]): 0.39; Average RLU (FIMM Screening-2, scaffold based) (Hsp90/Cdc37 [2]): 19772 RLU |
| O=C(O)c1cc(S(=O)(=O)Nc2cccc(Cl)c2)ccc1O [SC22, 5-[(3-chlorophenyl)sulfamoyl]-2-hydroxybenzoic acid] | – | – | – | – | normalized RLU (FIMM Screening-2, scaffold based) (Hsp90/Cdc37 [2]): 0.73; Average RLU (FIMM Screening-2, scaffold based) (Hsp90/Cdc37 [2]): 37332 RLU |
| O=C(O[C@@H]1Cc2c(O)cc(O)cc2O[C@@H]1c1cc(O)c(O)c(O)c1)c1cc(O)c(O)c(O)c1 [compound 3, Epigallocatechin gallate] | 88 ± 23 µM | 57 ± 14 µM | 0.45 | 22619 RLU | – |
| Cc1cc(OCC(=O)Nc2ccccc2C(=O)O)cc(C)c1Cl [×1127, 2-[2-(4-chloro-3,5-dimethylphenoxy)acetamido]benzoic acid] | 41 ± 10 µM | 11 ± 1 µM | – | – | normalized RLU (FIMM Screening-2, scaffold based) (Hsp90/Cdc37 [2]): 0.66; Average RLU (FIMM Screening-2, scaffold based) (Hsp90/Cdc37 [2]): 33660 RLU |
| O=c1c(O)c(-c2ccc(O)c(O)c2)oc2cc(O)cc(O)c12 [×1742, 2-(3,4-dihydroxyphenyl)-3,5,7-trihydroxy-4H-chromen-4-one dihydrate (quercetin dihydrate)] | – | – | – | – | normalized RLU (Hsp90/Cdc37 [1]): 0.40; Average RLU (Hsp90/Cdc37 [1]): 100349 RLU; competition with FITC-geldanamycin (ATP-pocket binding, polarization signal) (Hsp90α (N-terminal)): None of these four compounds displaced; effect on spheroid formation (SK-BR-3 cells): did not decrease; effect on spheroid formation (HCC-44 cells): did not decrease; effect on spheroid formation (MDA-MB-231 cells): significantly increased; effect on spheroid formation (MIA PaCa-2 cells): significantly increased |
| Enamine compound T5807719 [compound 4] | – | – | 0.48 | 24009 RLU | – |
| Enamine compound T6605315 [compound 5] | – | – | 0.57 | 28274 RLU | – |
